Laboratory results from the C3SDB collision cross section collection.
“And” between values parts separate entries of the source, which are not always exact repeats. Equal entries are not always repeated.

Details: [M+H]+; instrument: TW; calibrated with polyalanine and drug standards

Row | collision cross section (N2) | SMILES
1 | 128.7 Å² | CCCc1cc(OC)c2c(c1)OCO2 [DIHYDROMYRISTICIN]
2 | 159.4 Å² | Cc1cccc2c3c(ccc12)C1=C(C(=O)C3=O)[C@@H](C)CO1 [DIHYDROTANSHINONE I]
3 | 171.7 Å² | CN(C(=O)C(Cl)Cl)c1ccc(OC(=O)c2ccco2)cc1 [DILOXANIDE FUROATE]
4 | 150 Å² | COc1ccc(C(=O)c2ccccc2O)c(O)c1 [DIOXYBENZONE]
5 | 223.9 Å² | OCCN(CCO)c1nc(N2CCCCC2)c2nc(N(CCO)CCO)nc(N3CCCCC3)c2n1 [DIPYRIDAMOLE]
6 | 165.5 Å² | CCN(CC)C(=S)SSC(=S)N(CC)CC [DISULFIRAM]
7 | 168.1 Å² and 184.7 Å² | CCn1cc(C(=O)O)c(=O)c2cc(F)c(N3CCNCC3)nc21 [ENOXACIN]
8 | 190.6 Å² | CCN1CCN(c2cc3c(cc2F)c(=O)c(C(=O)O)cn3C2CC2)CC1 [ENROFLOXACIN]
9 | 202.9 Å² | O=C(O[C@@H]1Cc2c(O)cc(O)cc2O[C@@H]1c1ccc(O)c(O)c1)c1cc(O)c(O)c(O)c1 [EPICATECHIN MONOGALLATE]
10 | 149 Å² | CCN(CC)C(=O)c1ccc(O)c(OC)c1 [ETHAMIVAN]
11 | 135.8 Å² | CCc1cc(C(N)=S)ccn1 [ETHIONAMIDE]
12 | 152.6 Å² | CCOc1ccc2c(c1)C(C)=CC(C)(C)N2 [ETHOXYQUIN]
13 | 125.4 Å² | CCOC(=O)c1ccc(O)cc1 [ETHYL PARABEN]
14 | 168.4 Å² | CC(=O)OCC(CCn1cnc2cnc(N)nc21)COC(C)=O [FAMCICLOVIR]
15 | 180.6 Å² | Cc1nc(-c2ccc(OCC(C)C)c(C#N)c2)sc1C(=O)O [FEBUXOSTAT]
16 | 170.8 Å² | COC(=O)Nc1nc2ccc(Sc3ccccc3)cc2[nH]1 [FENBENDAZOLE]
17 | 135.8 Å² | CCC(C(N)=O)c1ccccc1 (stereo not drawn) [FENBUTYRAMIDE]
18 | 181.1 Å² | CC1(C)OC(=O)C(OCC2CC2)=C1c1ccc(S(C)(=O)=O)cc1 [FIROCOXIB]
19 | 213.3 Å² | COC(=O)C[C@H]1C(C)(C)[C@H](OC(C)=O)[C@@H]2CC3=C4CC(=O)O[C@@H](c5ccoc5)[C@]4(C)CC[C@@H]3C1(C)C2=O [FISSINOLIDE]
20 | 163.4 Å² | OC(Cn1cncn1)(Cn1cncn1)c1ccc(F)cc1F [FLUCONAZOLE]
21 | 118.4 Å² | Nc1[nH]c(=O)ncc1F [FLUCYTOSINE]
22 | 156.8 Å² | COc1ccc(-c2coc3cc(O)ccc3c2=O)cc1 [FORMONONETIN]
23 | 165.6 Å² | CCOC(=O)c1ncn2c1CN(C)C(=O)c1cc(F)ccc1-2 [FUMAZENIL]
24 | 169.3 Å² | NS(=O)(=O)c1cc(C(=O)O)c(NCc2ccco2)cc1Cl [FUROSEMIDE]
25 | 165.7 Å² | N[C@@H](CCC(=O)N[C@@H](CS)C(=O)NCC(=O)O)C(=O)O [GLUTATHIONE]
26 | 205.2 Å² | C[C@H](CCC(=O)NCC(=O)O)[C@H]1CC[C@H]2[C@@H]3[C@H](O)C[C@@H]4C[C@H](O)CC[C@]4(C)[C@H]3C[C@H](O)[C@]12C [GLYCOCHOLIC ACID]

Row | collision cross section (N2) | SMILES
27 | 199.6 Å² | O=c1c(O)c(-c2ccc(O)c(O)c2)oc2c(O[C@@H]3O[C@H](CO)[C@@H](O)[C@H](O)[C@H]3O)c(O)cc(O)c12 [GOSSYPIN]
28 | 178.6 Å² | COC1=CC(=O)C[C@@H](C)[C@]12Oc1c(Cl)c(OC)cc(OC)c1C2=O [GRISEOFULVIN]
29 | 248.4 Å² | CC1=C(CCC(=O)O)c2cc3nc(cc4[nH]c(cc5[nH]c(cc1n2)c(C)c5C(C)O)c(C)c4C(C)O)C(C)=C3CCC(=O)O (stereo not drawn) [HAEMATOPORPHYRIN]
30 | 200.9 Å² | CC1(C)O[C@@H]2C[C@H]3[C@@H]4CCC5=CC(=O)CC[C@]5(C)[C@@]4(F)[C@@H](O)C[C@]3(C)[C@]2(C(=O)CCl)O1 [HALCINONIDE]
31 | 169.1 Å² | COc1ccc([C@@H]2CC(=O)c3c(O)cc(O)cc3O2)cc1O [HESPERETIN]
32 | 161.7 Å² | COc1cc(O)c2c(=O)cc(C)oc2c1CC=C(C)C [HETEROPEUCENIN, METHYL ETHER]
33 | 191.2 Å² | COc1ccc(-c2oc3cc(OC)c(OC)c(OC)c3c(=O)c2OC)cc1OC [HEXAMETHYLQUERCETAGETIN]
34 | 129 Å² | CCCCCCc1ccc(O)cc1O [HEXYLRESORCINOL]
35 | 212.4 Å² | C[C@]12CCC(=O)C=C1CC[C@@H]1[C@@H]2[C@@H](O)C[C@@]2(C)[C@H]1CC[C@]2(O)C(=O)COC(=O)CCC(=O)O [HYDROCORTISONE HEMISUCCINATE]
36 | 212.5 Å² | CCCCC(=O)O[C@]1(C(=O)CO)CC[C@H]2[C@@H]3CCC4=CC(=O)CC[C@]4(C)[C@H]3[C@@H](O)C[C@@]21C [HYDROCORTISONE VALERATE]
37 | 185.1 Å² | C[C@]12CCC(=O)C=C1CC[C@@H]1[C@@H]2[C@@H](O)C[C@@]2(C)[C@H]1CC[C@]2(O)C(=O)CO [HYDROCORTISONE]
38 | 144 Å² | CC(C)Cc1ccc(C(C)C(=O)O)cc1 (stereo not drawn) [IBUPROFEN]
39 | 260.8 Å² | COc1ccc(-c2oc3c(CC=C(C)C)c(O[C@@H]4O[C@H](CO)[C@@H](O)[C@H](O)[C@H]4O)cc(O)c3c(=O)c2O[C@@H]2O[C@@H](C)[C@H](O)[C@@H](O)[C@H]2O)cc1 [ICARIIN]
40 | 179 Å² | COc1ccc2c(c1)c(CC(=O)O)c(C)n2C(=O)c1ccc(Cl)cc1 [INDOMETHACIN]
41 | 166.6 Å² | CC(C(=O)O)c1ccc(N2Cc3ccccc3C2=O)cc1 (stereo not drawn) [INDOPROFEN]
42 | 143.7 Å² | Oc1c(I)cc(I)c2cccnc12 [IODOQUINOL]
43 | 198.6 Å² and 212.4 Å² | COc1cc(-c2coc3cc(OCc4ccccc4)c(OC)c(O)c3c2=O)cc(O)c1OC [IRIGENIN, 7-BENZYL ETHER]
44 | 234.1 Å² | COc1cc(-c2coc3cc(OCc4ccccc4)c(OC)c(O)c3c2=O)cc(OCc2ccccc2)c1OC [IRIGENIN, DIBENZYL ETHER]
45 | 146 Å² | C=C1CCC2C(CC2(C)C)C(=O)CCC1O (stereo not drawn) [ISOKOBUSONE]
46 | 149.4 Å² | CC(C)NCC(O)c1ccc(O)c(O)c1 (stereo not drawn) [ISOPROTERENOL]
47 | 248.8 Å² | CCC(C)n1ncn(-c2ccc(N3CCN(c4ccc(OCC5COC(Cn6cncn6)(c6ccc(Cl)cc6Cl)O5)cc4)CC3)cc2)c1=O (stereo not drawn) [ITRACONAZOLE]
48 | 159.2 Å² | O=c1c(O)c(-c2ccc(O)cc2)oc2cc(O)cc(O)c12 [KAEMPFEROL]
49 | 157.5 Å² | CC(C(=O)O)c1cccc(C(=O)c2ccccc2)c1 (stereo not drawn) [KETOPROFEN]
50 | 121.9 Å² | O=c1cc(CO)occ1O [KOJIC ACID]
51 | 218.5 Å² | CC(=O)NCCc1ccc(O)c(-c2c(O)c(O)c3c(c2O)C(=O)c2c(cc(O)c(C(=O)O)c2C(=O)O)C3=O)c1 [LACCAIC ACID A]
52 | 169.2 Å² | OC[C@H]1O[C@@H](O[C@@H]2[C@@H](CO)O[C@](O)(CO)[C@H]2O)[C@H](O)[C@@H](O)[C@H]1O [LACTULOSE]

Row | SMILES | collision cross section (N2)
53 | COP(=O)(OC)OC=C(Cl)Cl [DICHLORVOS] | 138.7 Å²
54 | COC(=O)NC(=S)Nc1ccccc1NC(=S)NC(=O)OC [DIMETHYL 4,4-o-PHENYLENE-BIS (3-THIOPHANATE)] | 173.3 Å²
55 | CCC(C)C(=O)O[C@@H]1C[C@@]2(C)[C@H](c3ccoc3)OC(=O)CC23OC2(C)OC34[C@H](OC(=O)C(C)C)[C@@]3(O)[C@@H](OC(=O)C5(C)OC5C)[C@@]5(C)C[C@]3(O)[C@@](C)([C@H]5CC(=O)OC)C14O2 (stereo partly drawn) [ENTANDROPHRAGMIN] | 259.8 Å²
56 | CCOC(=O)c1cncn1C(C)c1ccccc1 (stereo not drawn) [ETOMIDATE] | 155.9 Å²
57 | CC(C)=CCC[C@]1(C)C=Cc2c(O)c3c(c(CC=C(C)C)c2O1)O[C@]12C(=C[C@@H]4C[C@H]1C(C)(C)O[C@@]2(C/C=C(/C)C(=O)O)C4=O)C3=O [GAMBOGIC ACID] | 239 Å²
58 | O=c1c(O)c(-c2ccc(O)c(O)c2)oc2c(O)c(O)cc(O)c12 [GOSSYPETIN] | 165.9 Å²
59 | CN(C)Cc1c[nH]c2ccccc12 [GRAMINE] | 134.9 Å²
60 | COc1ccc2c(c1)[nH]c1c(C)nccc12 [HARMINE] | 144.5 Å²
61 | O=P1(NCCCl)OCCCN1CCCl (stereo not drawn) [IFOSFAMIDE] | 147 Å²
62 | C/C=C/c1ccc2c(c1)OCO2 [ISOSAFROLE] | 138.4 Å²
63 | COC1=CC(=O)O[C@@H](/C=C/c2ccccc2)C1 [KAWAIN] | 149.4 Å²

Same assay, conditions: [M+Na]+; instrument: TW; calibrated with polyalanine and drug standards

Row | collision cross section (N2) [Å²] | SMILES
64 | 150 | CC(=O)Oc1cccc(C(=O)O)c1OC(C)=O [DIPYROCETYL]
65 | 183.2 | COc1ccc2c(c1OC)OC[C@@H](c1ccc(OC)c(OC)c1OC)C2 [DUARTIN, DIMETHYL ETHER]
66 | 200.8 | C[C@H](CCC(=O)NCC(=O)O)[C@H]1CC[C@H]2[C@@H]3[C@H](O)C[C@@H]4C[C@H](O)CC[C@]4(C)[C@H]3C[C@H](O)[C@]12C [GLYCOCHOLIC ACID]
67 | 227 | COc1ccc([C@@H]2CC(=O)c3c(O)cc(O[C@@H]4O[C@H](CO[C@@H]5O[C@@H](C)[C@H](O)[C@@H](O)[C@H]5O)[C@@H](O)[C@H](O)[C@H]4O)cc3O2)cc1O [HESPERIDIN]

Same assay, conditions: [M]+; instrument: TW; calibrated with polyalanine and drug standards

Row | collision cross section (N2) [Å²] | SMILES
68 | 144.2 | O=C1OCCN1/N=C/c1ccc([N+](=O)[O-])o1 [FURAZOLIDONE]
